Where two headings read alike, the source gives them in different places.
How the values were obtained:
clinical = settings: human, in vivo, po
Protocol: In addition to the consistent delivery of a suspended active ingredient from a topical product, successful treatment also depends on the elimination kinetics of the active ingredient. After a drug is absorbed into a patient's body, elimination begins thereby reducing the concentration over time. The half-life determines the length of time that the drug will be effective. […] Since the maximum plasma concentration (11.4 ng roflumilast per mL plasma) occurs for roflumilast about 1 hour after oral dosing, mean plasma concentration at the time of the first missed dose (1 day after the most recent dose) will be approximately 5.7 ng/mL (half the 11.4 ng/mL maximum plasma concentration). […] For oral roflumilast, use of a sustained release oral drug delivery system instead of the immediate release tablet studied by Huang, would be an example of extrinsic PK property modification to increase the adherence imperfection forgiveness of the product that would benefit the patient that missed one or more doses of roflumilast.

[1] = roflumilast crystal size by polarized light microscopy, dry and after six weeks storage in solvent blends; assay type: physicochemical; settings: for crystal width: six weeks at room temperature
[2] = dissolution of roflumilast in solvents and solvent:water blends at 25° C.; assay type: physicochemical
Protocol: (§1) 0.0092 grams of roflumilast (Batch A14367P from Interquim S.A.) was weighed into a liquid scintillation vial. An equimolar blend of hexylene glycol (lot 1AC0818, Spectrum) and distilled water was added dropwise with mixing to the vial containing roflumilast to produce a suspension of roflumilast in excess of the solubility limit. An equimolar blend is 86.7% hexylene glycol and 13.3% water on a weight/weight percent basis. After mixing each addition of hexylene glycol:water blend, the tightly capped vial was returned to a water bath set at 25° C. It required 0.7962 grams of equimolar Hexylene Glycol:Water blend to completely dissolve the 0.0092 grams of roflumilast and give a 1.14% roflumilast in equimolar Hexylene Glycol:Water (wt/wt %) solution. 0.0064 grams of roflumilast was added to this sample (labeled 12-3) to form a finely dispersed suspension at 25° C. and the vial was then stored undisturbed at about 15-18° C., protected from the light for six weeks. A sample of the roflumilast crystals was removed from the vial, placed on a microscope slide (with coverslip) and then examined using polarized light microscopy using a 10× objective (FIG. 2, microscope sample 20-3).
0.0111 grams of roflumilast (Batch A14367P from Interquim S.A.) was weighed into a liquid scintillation vial. An equimolar blend of […] (Transcutol P, lot 146063, Gattefosse) and distilled water was added dropwise with mixing to the vial containing roflumilast to produce a suspension of roflumilast in excess of the solubility limit. An equimolar blend is 88.3% DEGEE and 11.7% water on a weight/weight percent basis. After mixing each addition of DEGEE:water blend, the tightly capped vial was returned to a water bath set at 25° C. It required 0.2477 grams of equimolar DEGEE:Water blend to completely dissolve the 0.0111 grams of roflumilast and give a 4.29% roflumilast in equimolar DEGEE:Water (wt/wt %) solution. This sample (labeled 13-1) was a solution of roflumilast at 25° C. and the vial was then stored undisturbed at about 15-18° C., protected from the light for six weeks. Roflumilast crystals precipitated due to the cooler storage temperature. A sample of the roflumilast crystals was removed from the vial, placed on a microscope slide (with coverslip) and then examined using polarized light microscopy using a 10× objective (FIG. 3, microscope sample 20-2).
as §1, with “4×” for “10×”, “4,” for “2,”
0.0180 grams of roflumilast (Batch A14367P from Interquim S.A.) was weighed into a liquid scintillation vial. Polyethylene glycol 400 (lot 1 DE0880, Spectrum) was added dropwise with mixing to the vial containing roflumilast to produce a suspension of roflumilast in excess of the solubility limit. After mixing each addition of polyethylene glycol 400, the tightly capped vial was returned to a water bath set at 25° C. […]

[3] = parameters: species or system human; settings: in vivo
Protocol: A parallel group, double blind, vehicle-controlled study was performed in which ARQ-151 cream 0.3% (Formulation 3 in Example 5) or ARQ-151 cream 0.15% (Formulation 7) or vehicle cream is applied QD for 84 days to subjects with chronic plaque psoriasis involving between 2 and 20% body surface area (BSA).
A total of approximately 300 subjects were enrolled at approximately 30 study sites in the United States and Canada. Subjects were adult (≥18 y/o) males or females with chronic plaque psoriasis. […] Subjects with an IGA of ‘Mild’ (2) were limited to 20% of total enrollment. Subjects with an IGA of ‘Severe’ (4) were limited to 15% of total enrollment. Subjects had at least 2% and no more than 20% Body Surface Area (BSA) of chronic plaque psoriasis. All psoriasis lesions on a subject were treated including the face, trunk, genitals/skin folds, or limbs (excluding the scalp). The palms and soles were treated but were not counted towards any measurements of efficacy (IGA, BSA, mPASI). For subjects with intertriginous area involvement, and with severity of the intertriginous area lesions at least ‘mild’ (IGA≥2) at Baseline, ‘I-IGA’ score was recorded at weeks 4, 6, 8 and 12. The same IGA used for the primary endpoint (whole body) was also used for ‘intertriginous area lesion IGA score’ (I-IGA), but only intertriginous areas were evaluated for I-IGA, not the rest of the body.
(§2) Blood samples were taken from all subjects at all sites as pre-dose on Day 1 (baseline) and Weeks 4 (Day 29) and 12 (Day 85). The analysis of the PK data collected was performed with a CFR 21 Part 11 compliant software package (Phoenix WinNonlin version 8.1) which is in full compliance with ICH-GCP. Samples from all subjects within the PK population were evaluated. Any subject or data excluded from the PK analysis were identified, along with the reason for exclusion in this PK report. BSA was averaged based on Baseline, Week 2, Week 4, Week 6 and Week 8 measured BSA values, the screening values, Week 12 and Week 16 values, and any other unscheduled visit values were excluded. Four subjects participated in an optional phase at the completion of the study to assess the elimination of roflumilast and the N-oxide at the end of treatment, however only three had quantifiable concentrations of roflumilast and the N-oxide. From the three subjects, the terminal rate constant (lambda z, λz) was determined by the slope of the regression line of the natural log transformed concentrations vs. time data. The terminal half-life (t½) was calculated as: In(2)/λz.
(§3) Concentration values that are reported BLQ (<0.100 for roflumilast and N-oxide) were reported as below limit of quantification (BLQ) in the concentration data listings and considered non-numerical. Nonnumerical values were ignored in the concentration by nominal time summary statistics. Summary statistics (i.e. N, arithmetic mean, SD, CV %, minimum, median, maximum, geometric mean, geometric SD, 95% confidence intervals for both the arithmetic mean and geometric mean) were calculated for plasma concentrations for each analyte, nominal day and dose strength. All concentration and descriptive statistic values were reported to three significant figures.

[4] = optional elimination phase assessment at end of treatment with ARQ-151 cream in psoriasis; assay type: in vivo, human; settings: for half-life: human, plasma
Protocol: as §2, §3

[5] = cited from earlier work; for mean plasma half-life: multiple 0.375 mg doses, immediate release oral roflumilast
[6] = cited from earlier work

## O=C(Nc1c(Cl)cncc1Cl)c1ccc(OC(F)F)c(OCC2CC2)c1 [roflumilast, N-(3,5-dichloropyrid-4-yl)-3-cyclopropylmethoxy-4-difluoromethoxybenzamid-e]
clinical
  concentration at 1 day: ~5.7 ng/mL
  concentration at 2 days: ~2.8 ng/mL
  concentration at 72 hours: ~1.4 ng/mL
[1]; Sample 21-1, HG:NMP:Water (water mole fraction=1.2)
  crystal width: 0.02 mm
[1]; Sample 21-2, equimolar ethanol:water
  crystal width: 0.02 mm
[1]; Sample 21-3, equimolar PEG 400:water
  crystal width: 0.02 mm
[1]; Sample 21-5, equimolar propylene glycol:water
  crystal width: 0.02 mm
[1]; equimolar N-methyl pyrrolidone:water compared to 12:4:3 (wt/wt/wt) hexylene glycol:N-methyl pyrrolidone:water
  roflumilast crystalline growth, comparison: Dramatically greater roflumilast crystalline growth
[2]; 0.28% roflumilast, 88.97% propylene glycol, 10.75% water, initially clear solution, 25° C.
  storage time until fine roflumilast crystals were observed: 105 min
[2]; dimethyl sulfoxide, 25° C.
  roflumilast concentration in solution: 28.5%
[2]; equimolar DEGEE:Water, 25° C.
  roflumilast concentration at complete dissolution: 4.29 wt/wt %
[2]; equimolar Hexylene Glycol:Water, 25° C.
  roflumilast concentration at complete dissolution: 1.14 wt/wt %
[2]; equimolar N-Methyl-2 pyrrolidone:water, 25° C.
  roflumilast concentration completely dissolved: 22.85%
[2]; polyethylene glycol 400, 25° C.
  roflumilast concentration at complete dissolution: 3.18%
[3]; both, human
  mean pre-dose plasma concentration, Day 29 versus Day 85: ≤ 2 fold
[3]; both, human, 29 day
  increase of roflumilast plasma pre-dose concentration between the 2-fold increase in dose strength: about 1.6 fold
[3]; both, human, 85 day
  increase of roflumilast plasma pre-dose concentration between the 2-fold increase in dose strength: about 1.7 fold
[4]; topical or ocular, three subjects, end of treatment, topical ARQ-151, read-out: Half-life values (converted)
  half-life: ~86.4 h
[4]; after topical administration of a formulation with self-emulsifying wax blend of dicetyl phosphate and ceteth-10 phosphate and a solvent, read-out: plasma half-life of roflumilast
  half-life: 81.6 to 88.8 h
[5]
  mean plasma half-life: about 1 day
[5]; mean of 12 subjects
  mean plasma half-life: 25.6 h
[5]; multiple 0.375 mg oral doses
  maximum plasma concentration: 11.4 ng/mL
  time of maximum plasma concentration after oral dosing: about 1 hour
[6]; after intravenous administration in humans
  plasma half-life: about 15 hours
[6]; after oral administration
  plasma half-life: 17 to 30 h

## O=C(Nc1c(Cl)c[n+]([O-])cc1Cl)c1ccc(OC(F)F)c(OCC2CC2)c1 [roflumilast N-oxide]
[3]
  mean N-oxide pre-dose plasma concentration relative to parent pre-dose plasma concentration: 5.3-6.2 fold
  mean pre-dose plasma concentration, Day 29 versus Day 85: ≤ 2 fold
[4]; three subjects, end of treatment, topical ARQ-151
  Half-life values: around 3.6 days

From US12005051B2, “Topical roflumilast formulation having improved delivery and plasma half life” (ARCUTIS BIOTHERAPEUTICS, inc., priority 2017, dated 2024)
